Publication PMC10951314 (Nature Communications, 2024)

Experiments:
[1] = molecular target: T1, MavL42-435 (Legionella pneumophila, UniProt Q5ZSJ1)
T1 construct: gene lpg2526

[2] = molecular target: T2, MavL42-435-UbVME (Legionella pneumophila, UniProt Q5ZSJ1)
T2 construct: gene lpg2526

T1 sequence (Q5ZSJ1 42-435 limits assumed): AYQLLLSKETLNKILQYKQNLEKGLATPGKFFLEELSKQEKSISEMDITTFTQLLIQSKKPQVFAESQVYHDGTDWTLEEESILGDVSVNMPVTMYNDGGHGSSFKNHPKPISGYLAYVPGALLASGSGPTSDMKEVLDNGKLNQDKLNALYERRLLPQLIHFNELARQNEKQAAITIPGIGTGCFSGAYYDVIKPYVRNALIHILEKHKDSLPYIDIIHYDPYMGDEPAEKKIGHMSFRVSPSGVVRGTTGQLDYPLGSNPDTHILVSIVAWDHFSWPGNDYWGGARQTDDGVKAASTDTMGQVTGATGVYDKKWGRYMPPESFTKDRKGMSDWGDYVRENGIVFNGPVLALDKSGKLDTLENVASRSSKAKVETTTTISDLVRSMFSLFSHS

In the case of `Nc1ncnc2c1ncn2[C@@H]1O[C@H](COP(=O)(O)OP(=O)(O)OC[C@H]2OC(O)[C@H](O)[C@@H]2O)[C@@H](O)[C@H]1O` (some centres unmarked) [ADPR], the Kd [1] is reported as 25.8 µM and the “X-ray crystal structure, 2.15 Å (crystal soak)” value [2] is reported as “we observed electron density for ADPR in one of the MavL-UbVME subunits”.
